In patent US20060134001A1, “Conjugated infrared fluorescent substances for detection of cell death” (priority 2002, published 2006):

Experiments:
[1] = system: mitochondria and/or endoplasmic reticulum; test: Subcellular partitioning of dye; assay type: cell-based; details: concentration-dependent
vasculature of the heart = test: Near-infrared fluorescence imaging of heart vasculature with vascular contrast agent after LAD artery ischemia; assay type: in vivo; details: rat, 12.5 nmol injected, 24 hours after LAD artery ischemia; compared with 2,3,5-triphenyltetrazolium chloride staining
Source text: The otherwise invisible near-infrared fluorescence from indocyanine green has been pseudo-colored white prior to superimposition on the color video (anatomic) image. […] In pseudo-colored magenta are the red fluorescent microbeads injected during initial ischemia. […] The area of the heart internal to this “ring” of perfusion is termed the “area at risk”, i.e., the area of myocardium that had no blood flow during LAD ligation. […] Finally, the near-infrared fluorescence signal from injection of 25 μg of human annexin V covalently conjugated with IRDye78 (a near-infrared fluorophore) is shown pseudo-colored in green.

[2] = In vivo early half-life of dye
[3] = Solubility of dye in blood; details: small molecule form
[4] = human annexin V; read-out: affinity (kd) for phosphatidylserine (PS); cited from earlier work
[5] = cited from earlier work
[6] = system: apoptotic and/or necrotic cells; test: Near-infrared fluorescence imaging of labeled annexin V in rat heart after LAD artery ischemia/reperfusion; assay type: in vivo; details: 25 μg injected, imaged 24 hours after 20 minutes LAD ligation and reperfusion
Method: A branch of the left anterior descending (LAD) artery of the rat heart was ligated with a silk suture. During ligation, the aorta was cross-clamped and 10 μm red fluorescent microbeads were injected into the ventricle. […] After 20 minutes of ligation, the suture was removed, and the heart was permitted to re-perfuse.
The otherwise invisible near-infrared fluorescence from indocyanine green has been pseudo-colored white prior to superimposition on the color video (anatomic) image. […] In pseudo-colored magenta are the red fluorescent microbeads injected during initial ischemia. This area was well perfused during ischemia. The area of the heart internal to this “ring” of perfusion is termed the “area at risk”, i.e., the area of myocardium that had no blood flow during LAD ligation. The area of avascularity/infarct identified with indocyanine green is contained within the area at risk. Finally, the near-infrared fluorescence signal from injection of 25 μg of human annexin V covalently conjugated with IRDye78 (a near-infrared fluorophore) is shown pseudo-colored in green. The green areas, thus, represent apoptotic and/or necrotic cells, i.e., those areas within the area at risk that have actually succumbed to the ischemia. […] Presumably, this area was supplied by either diffusion or smaller collateral vessels fed by the well-perfused area.

CN1C(=CC=C2CCCC(C=CC3=[N+](C)c4ccccc4C3(C)C)=C2Cl)C(C)(C)c2ccccc21.[O-][Cl+3]([O-])([O-])[O-] [IR-786]
partitioning into organelles [1]: partitions efficiently into mitochondria and/or endoplasmic reticulum

CC1(C)C(/C=C/C=C/C=C/C=C2\N(CCCCS(=O)(=O)O)c3ccc4ccccc4c3C2(C)C)=[N+](CCCCS(=O)(=O)[O-])c2ccc3ccccc3c21 [Indocyanine green, indocyanine green]
vascular staining of ischemic heart (vasculature of the heart): reveals an area of avascularity that corresponds to infarcted tissue | in vivo early half-life [2]: shorter half-life | solubility in blood [3]: somewhat less soluble in blood

Human annexin V: human annexin V, molecular weight 36 kd, binds phosphatidylserine; targeting moiety
Kd [4]: 7 nM | dose at which pharmacological effects (anti-coagulant effects) begin ([5]; in vivo): greater than 300 μg protein/kg | pharmacologic or toxic side effects at tracer doses ([5]; tracer doses, e.g. 10 μg protein/kg to 50 μg protein/kg, animal or human subjects): no reported pharmacologic or toxic side effects

human annexin V covalently conjugated with IRDye78: annexin V reacted under aqueous conditions with the N-hydroxysuccinimide ester of IRDye78, a near-infrared fluorophore
near-infrared fluorescence signal localisation in ischemic heart [6]: several areas of infarcted myocardium within the area at risk
